Columns and labels:
Type in all cases: cell-based
Settings in all cases: read-out: % inhibition at 100 nM
hERG potassium channel [1] = target: T1, hERG potassium channel (Homo sapiens, UniProt Q12809, S624A); test: whole-cell patch clamp, transfected HEK-293 cells, […], RT
T1 construct: gene KCNH2

hERG potassium channel [2] = target: T2, hERG potassium channel (Homo sapiens, UniProt Q12809, Y652A); test: as above
T2 construct: gene KCNH2

hERG potassium channel [3] = target: T3, hERG potassium channel (Homo sapiens, UniProt Q12809); test: whole-cell patch clamp, HEK-293 cells, […] inhibition at […] (RT), […] (PT)
T3 construct: gene KCNH2
T3 sequence (Q12809 whole entry): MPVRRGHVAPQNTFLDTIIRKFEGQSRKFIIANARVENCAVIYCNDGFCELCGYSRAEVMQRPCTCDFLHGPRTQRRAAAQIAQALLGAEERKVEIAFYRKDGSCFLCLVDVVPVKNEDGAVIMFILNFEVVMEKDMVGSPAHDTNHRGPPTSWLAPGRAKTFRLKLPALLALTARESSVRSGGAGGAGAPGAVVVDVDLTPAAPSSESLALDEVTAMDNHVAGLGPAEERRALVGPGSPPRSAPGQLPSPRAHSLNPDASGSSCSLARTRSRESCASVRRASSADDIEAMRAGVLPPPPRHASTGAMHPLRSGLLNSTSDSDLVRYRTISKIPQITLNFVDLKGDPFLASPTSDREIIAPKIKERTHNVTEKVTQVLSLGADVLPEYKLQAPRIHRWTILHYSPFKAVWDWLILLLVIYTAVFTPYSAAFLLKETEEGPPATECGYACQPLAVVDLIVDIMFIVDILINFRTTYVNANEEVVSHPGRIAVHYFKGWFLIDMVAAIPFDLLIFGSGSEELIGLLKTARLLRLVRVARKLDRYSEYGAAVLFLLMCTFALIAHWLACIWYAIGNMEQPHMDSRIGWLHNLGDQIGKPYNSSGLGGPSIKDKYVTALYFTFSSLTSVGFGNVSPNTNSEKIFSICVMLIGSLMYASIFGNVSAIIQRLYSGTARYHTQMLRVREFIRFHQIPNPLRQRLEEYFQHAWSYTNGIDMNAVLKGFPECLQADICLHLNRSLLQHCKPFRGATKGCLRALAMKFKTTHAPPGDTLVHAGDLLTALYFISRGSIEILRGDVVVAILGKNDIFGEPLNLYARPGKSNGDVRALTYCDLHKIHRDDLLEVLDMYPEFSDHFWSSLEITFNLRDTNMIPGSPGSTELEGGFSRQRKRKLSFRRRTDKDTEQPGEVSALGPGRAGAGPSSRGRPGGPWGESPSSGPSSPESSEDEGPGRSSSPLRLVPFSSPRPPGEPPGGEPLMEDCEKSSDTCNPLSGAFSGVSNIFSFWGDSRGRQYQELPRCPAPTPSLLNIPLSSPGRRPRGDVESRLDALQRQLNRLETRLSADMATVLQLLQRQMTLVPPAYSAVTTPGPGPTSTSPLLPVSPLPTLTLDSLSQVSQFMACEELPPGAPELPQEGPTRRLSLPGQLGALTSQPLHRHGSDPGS

T2 sequence (Q12809 whole entry Y652A): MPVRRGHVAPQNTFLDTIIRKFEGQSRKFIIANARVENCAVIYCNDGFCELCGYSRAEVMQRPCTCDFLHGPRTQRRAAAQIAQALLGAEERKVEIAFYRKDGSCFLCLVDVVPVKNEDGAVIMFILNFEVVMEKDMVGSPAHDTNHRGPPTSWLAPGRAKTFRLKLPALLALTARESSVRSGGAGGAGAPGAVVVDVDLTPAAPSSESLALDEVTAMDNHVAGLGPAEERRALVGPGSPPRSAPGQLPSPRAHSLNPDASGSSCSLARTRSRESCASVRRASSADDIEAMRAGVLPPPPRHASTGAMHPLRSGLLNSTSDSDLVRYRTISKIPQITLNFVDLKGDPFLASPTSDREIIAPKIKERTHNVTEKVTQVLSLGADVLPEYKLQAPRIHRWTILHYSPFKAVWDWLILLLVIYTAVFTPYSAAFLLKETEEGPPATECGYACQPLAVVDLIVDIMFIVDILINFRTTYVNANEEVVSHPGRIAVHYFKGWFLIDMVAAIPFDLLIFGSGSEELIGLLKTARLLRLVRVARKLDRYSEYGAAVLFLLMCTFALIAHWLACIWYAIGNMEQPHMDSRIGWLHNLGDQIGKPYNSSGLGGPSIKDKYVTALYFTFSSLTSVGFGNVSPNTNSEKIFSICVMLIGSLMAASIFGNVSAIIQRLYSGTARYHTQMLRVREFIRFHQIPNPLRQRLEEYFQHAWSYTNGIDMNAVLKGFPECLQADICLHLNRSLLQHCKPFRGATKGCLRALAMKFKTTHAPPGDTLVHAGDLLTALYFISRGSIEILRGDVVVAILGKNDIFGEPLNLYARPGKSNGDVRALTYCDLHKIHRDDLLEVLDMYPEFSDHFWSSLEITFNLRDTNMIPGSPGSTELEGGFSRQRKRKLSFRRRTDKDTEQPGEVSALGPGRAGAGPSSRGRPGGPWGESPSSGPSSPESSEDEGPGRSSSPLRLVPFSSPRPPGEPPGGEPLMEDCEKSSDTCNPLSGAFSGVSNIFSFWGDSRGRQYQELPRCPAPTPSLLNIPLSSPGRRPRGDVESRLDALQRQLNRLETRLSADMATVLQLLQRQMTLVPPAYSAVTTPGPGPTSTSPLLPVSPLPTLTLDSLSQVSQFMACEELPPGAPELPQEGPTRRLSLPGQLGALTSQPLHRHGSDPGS
T1 sequence (Q12809 whole entry S624A): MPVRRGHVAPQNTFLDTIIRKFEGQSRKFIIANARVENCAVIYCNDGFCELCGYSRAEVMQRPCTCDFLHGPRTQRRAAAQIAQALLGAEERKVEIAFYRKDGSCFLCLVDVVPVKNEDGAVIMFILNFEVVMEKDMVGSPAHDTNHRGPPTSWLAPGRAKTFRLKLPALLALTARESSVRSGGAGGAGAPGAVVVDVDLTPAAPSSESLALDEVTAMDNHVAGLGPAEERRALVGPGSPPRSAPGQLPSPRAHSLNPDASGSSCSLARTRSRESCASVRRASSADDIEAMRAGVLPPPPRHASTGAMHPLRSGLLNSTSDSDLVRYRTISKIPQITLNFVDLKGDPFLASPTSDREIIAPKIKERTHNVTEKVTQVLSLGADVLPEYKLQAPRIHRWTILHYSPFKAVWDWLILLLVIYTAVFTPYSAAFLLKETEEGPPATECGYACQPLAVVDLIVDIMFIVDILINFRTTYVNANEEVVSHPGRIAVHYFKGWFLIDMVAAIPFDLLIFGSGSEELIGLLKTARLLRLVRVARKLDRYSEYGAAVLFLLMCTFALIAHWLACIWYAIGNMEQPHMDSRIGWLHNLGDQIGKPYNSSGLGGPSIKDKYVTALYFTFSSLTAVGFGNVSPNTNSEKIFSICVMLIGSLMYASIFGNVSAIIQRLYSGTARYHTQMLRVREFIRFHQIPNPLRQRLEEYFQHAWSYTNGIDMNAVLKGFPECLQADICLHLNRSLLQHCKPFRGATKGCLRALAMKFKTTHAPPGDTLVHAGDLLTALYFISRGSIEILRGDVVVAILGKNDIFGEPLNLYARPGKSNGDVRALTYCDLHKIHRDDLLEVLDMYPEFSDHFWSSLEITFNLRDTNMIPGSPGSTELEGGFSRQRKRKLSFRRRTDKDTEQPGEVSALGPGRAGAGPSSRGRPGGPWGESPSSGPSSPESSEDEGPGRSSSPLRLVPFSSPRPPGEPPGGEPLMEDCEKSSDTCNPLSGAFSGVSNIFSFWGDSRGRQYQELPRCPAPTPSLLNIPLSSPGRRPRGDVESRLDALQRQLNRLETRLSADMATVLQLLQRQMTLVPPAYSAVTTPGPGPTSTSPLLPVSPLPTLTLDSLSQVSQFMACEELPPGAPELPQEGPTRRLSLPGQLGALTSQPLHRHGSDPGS

In the case of COc1cc(N)c(Cl)cc1C(=O)NC1CCN(CCCOc2ccc(F)cc2)CC1OC (stereo not drawn) [cisapride], the inhibition at 0.1 µM (hERG potassium channel [1]) is reported as 44%, the inhibition at 0.1 µM (hERG potassium channel [2]) is reported as 33.9% and the inhibition at 0.1 µM (hERG potassium channel [3]) is reported as 75.9%.

Reference: article PMC10343501 (Molecules, 2023)
